{
  "source": "patent EP0411503B1",
  "about": "“Process for identifying and synthesizing binding sites of interacting proteins” (priority 1989, dated 1999)",
  "system": "peptide HIV-1 gp120",
  "assay": "Affinity HPLC of CD4 peptide on immobilized HIV-1 gp120 peptide",
  "assay_type": "binding",
  "source_text": "The existence of an interaction ability among complementary peptides was verified by affinity HPLC (G. Fassina and I. M. Chaiken, Advances in Chromatogr. 27:250, 1987).\nThe peptide HIV-1 gp120 was immobilized on a solid support (Eupergit^R C 30n, 800 µmoles/g load capability by controlled density) according to the conditions reported in literature (G. Fassina et al., J. Chromatogr. 376:87, 1986) and an HPLC glass column (80∗ 6.6 mm ID) was loaded with the peptide derivatized support to prepare an affinity column. The total amount of immobilized peptide in the column is 260 µg, as checked from the amino acid analysis of the support. Small amounts (1-10 µg) of CD4 peptide were eluted isochrathically on the column equilibrated by a flow rate of 1.0 ml/min with 0.1 M NH4Ac, pH 5.7.\nThe eluted solution was analysed by monitoring the optic absorbance.\nThe extension of the delay on column, which indicates the interaction between the peptides, was correlated to the dissociation constant Km/p of the binding according to the equation: 1/(V-Vo ) = Km/p /MT +[P]T /MT [formula] where V is the elution volume of the eluted peptide, Vo is void volume of the column, MT is the total immobilized peptide, [P]T is the eluted peptide, and Km/p is the dissociation constant of the binding. […]",
  "note": "Where no end group is shown, it is not given here.",
  "data": [
    {"substance": "NH2-APPISGOIRSS-COOH [HIV-1 gp120]", "values": [
      {"measurement": "binding in competitive binding assay", "setting": "1 mM of HIV-1 gp120 added to the buffer", "result": "completely inhibited"}
    ]},
    {"substance": "GPSKLNDRADS [peptide CD4, NH2-GPSKLNDRADSCOOH]", "values": [
      {"measurement": "Kd", "setting": "immobilized HIV-1 gp120 peptide, 0.1 M NH4Ac, pH 5.7, extrapolation at concentration zero of peptide, read-out: dissociation constant", "result": 80, "unit": "µM"}
    ]}
  ]
}
